One data set concerns 12 GNB strains. The class given is cell-based. As to conditions: OD measurements, mean of 12 GNB strains. How it is done:
(§1) Bacteria:Escherichia coli strains: 25922 and 35218 (ATCC, Manassas, VA, USA), 14182 (clinical isolate), Ag100 and Ag100A [34] (ΔacrAB) are two K-12 isogenic mutantsand the engineered mutant ML-35p. Additional ESKAPE species tested: Klebsiella pneumoniae strains 1287 and 224 (clinical isolates), Acinetobacter baumannii ATCC strain 19606, Pseudomonas aeruginosa ATCC strains 9027 and 27853. Bacteria were grown in Luria–Bertani (LB) broth (0.5% NaCl, 0.5% yeast extract, 1% tryptone, pH = 7), except for E. coli ML-35p that was grown in tryptic-soy broth.
(§2) Peptide self-assembly was determined by static light scattering measurements as described. Hemolysis was determined by measuring hemoglobin leakage from washed human RBCs, as described. Minimal inhibitory concentration (MIC) was determined using the microdilution assay, as described. Bactericidal kinetics were determined by mixing bacteria with rifampin, OAC, or their combinations, as described. Data were obtained from three independent assays performed in duplicate.

Data set [1] can be described thus: Hydrophobicity by reversed phase HPLC elution. The class given is physicochemical. Particulars: % acetonitrile required for elution in reversed phase HPLC, C18 column; rounded to nearest whole number.
For a further data set, the system named is E. coli strain AG100. As to the kind of experiment: microbe, parasite or virus in culture. The class given is cell-based, Escherichia coli. Particulars: strain AG100. The procedure:
as §1, §2
(§3) The wild-type E. coli strain AG100 and its isogenic ΔacrAB mutant AG100A were used to determine the MIC of OACs and of two known acrAB-TolC substrates: the AMP LL-37 and the macrolide antibiotic erythromycin that are normally inefficient against GNB.

The subject of data set [2] is E. coli ΔacrAB mutant AG100A. As to the kind of experiment: microbe, parasite or virus in culture. As to conditions: isogenic ΔacrAB mutant AG100A. The data set is classed as cell-based, Escherichia coli. The procedure:
as §1, §2, §3

A short description of a further data set: Maximum tolerated dose. As to conditions: single-dose subcutaneous, uninfected ICR mice, three mice per dose, monitored 7 days. The data set is classed as in vivo, mouse. The procedure:
Animals: All animal studies were performed using male ICR mice (25 ± 2 gr). The Technion Animal Care and Use committee approved all procedures, care, and handling of animals. Ethics approval codes: IL0800519, IL0640421, IL0550618, IL1811217.
The maximum tolerated dose (MTD) was determined after a single-dose subcutaneous (S.C) administration of C14(ω5)OOc10O using three mice per dose. Animals were monitored for adverse effects for 7 days after injection.

The subject of data set [3] is Acinetobacter baumannii 19606. As to the kind of experiment: Sensitization to rifampin, checkerboard method. The class given is cell-based. As to conditions: adjuvant at 8 µg/mL (10 µM for C14(ω5)OOc10O), Ab 19606, LB. How it is done: (§4) Bacterial sensitization: Sensitization to antibiotics was determined using the checkerboard method in presence of sub-MIC OAC (2.5, 5, and 10 μM), as described. The synergistic effect of the combinations was expressed in terms of the Sensitization Factor (SF), where SF = (MIC antibiotic alone)/(MIC antibiotic upon combination). Data were obtained from three independent assays performed in duplicate.
(§5) Figure 4 Hydrophobicity dependence of antibiotics potentiation by lipopeptide analogs. Sensitization of GNB to rifampin and erythromycin (upper and lower panel, respectively) was assessed by MIC experiments performed in LB medium, in presence or absence of an OAC analog whose A2 position was gradually shortened (from c10 to c6). Pseudomonas aeruginosa 27853 (Pa, blue), Klebsiella pneumoniae 1287 (Kp, green), Escherichia coli 25922 (Ec, red), and Acinetobacter baumannii 19606 (Ab, black).

The subject of another data set is Escherichia coli 25922. As to the kind of experiment: Sensitization to rifampin, checkerboard method. The data set is classed as cell-based. Particulars: adjuvant at 8 µg/mL (10 µM for C14(ω5)OOc10O), Ec 25922, LB. How it is done:
as §4, §5

In the next data set the test system is Klebsiella pneumoniae. As to the kind of experiment: Sensitization to rifampin, checkerboard method. The data set is classed as cell-based. As to conditions: adjuvant at 8 µg/mL (10 µM for C14(ω5)OOc10O), Kp, LB. How it is done:
as §4, §5

Data set [4] relates to Pseudomonas aeruginosa 27853. As to the kind of experiment: Sensitization to rifampin, checkerboard method. The data set is classed as cell-based. As to conditions: adjuvant at 8 µg/mL (10 µM for C14(ω5)OOc10O), Pa 27853, LB. How it is done: as §4, §5

On to `CCCCC=CCCCCCCCC(=O)N[C@@H](CCCN)C(=O)N[C@@H](CCCN)C(=O)NCCCCCCCCCC(=O)N[C@@H](CCCN)C(N)=O` [C14(ω5)OOc10O], for which the “MIC, LB medium” value with 12 GNB strains is above 50 µM. Besides, the “H, hydrophobicity” value in data set [1] stood at 50%. Also, the MIC in the data set with E. coli strain AG100 was found to be 25 µM. In data set [2], the “MIC, Ag100A” value was 6.2 µM. Further, in “Maximum tolerated dose”, the “Maximal tolerated dose (MTD)” value is recorded as “higher than 40 mg/kg”. Further, the “Sensitization factor (rifampin MIC alone)/(rifampin MIC in combination)” value in [3] is on record as 4000; in the data set on Escherichia coli 25922 it was 32,000; in the data set with Klebsiella pneumoniae it was 64,000; in [4], 32,000.

These data come from publication PMC8621570, “Mechanistic Studies of Antibiotic Adjuvants Reducing Kidney’s Bacterial Loads upon Systemic Monotherapy” (Pharmaceutics, 2021).
